Tested on: Prostate tumor cells (DU-145)
Experiment: Ultrasound-mediated uptake of fluorescent markers into prostate tumor cells (flow cytometry)
Type: cell-based
Conditions: for time decay constant τ of average uptake versus time of addition after exposure: exponential fit, calcein added ≧15 s after exposure
Procedure: Prostate tumor cells (DU-145) were suspended in RPMI-1640 medium with 10% fetal bovine serum at 5×10^5 cells/ml. For each experimental condition, a 3 ml polypropylene tube was filled with the cell suspension at room temperature (22±2° C.) and the top of the tube was closed without entrapping any air bubbles. The cells were exposed to ultrasound at 24 kHz in a chamber that consisted of a cylindrical piezoelectric transducer sandwiched between two PVC pipes and filled with deionized and degassed water at room temperature. Pressure, pulse length, duty cycle, and the total exposure time of ultrasound exposure were controlled. Acoustic spectra during exposure were collected using a hydrophone placed in the exposure chamber. Calcein, a green-fluorescent membrane-impermeant marker, dissolved in saline, was added to the suspensions either before or at various times after exposure at a final concentration of 10 μM. Other fluorescent markers, with different sizes, were also used to determine membrane permeability. The cells were kept at room temperature for 15 minutes after exposure, and then placed on ice until they were centrifuged and resuspended in phosphate-buffered saline with 0.1 mg/ml of propidium iodide (a red-fluorescence viability stain). Cell-by-cell fluorescence was measured using flow cytometry, and 6 μm green-fluorescence microspheres were added to each sample at a constant concentration to provide an internal volumetric standard for determining concentrations of viable cells.

Row | Molecule | uptake when added after ultrasound exposure (lifetime of membrane disruptions) (calcein added at different times after exposure) | average uptake when added 15 sec. after exposure compared to added before exposure (examined pressures 5.3, 7.1 and 8.0 atm) | time decay constant τ of average uptake versus time of addition after exposure (incident pressure 5.3 atm) | time decay constant τ of average uptake versus time of addition after exposure (incident pressure 7.1 atm) | time decay constant τ of average uptake versus time of addition after exposure (incident pressure 8.0 atm) | average cellular calcein uptake, plateau (ultrasound 24 kHz, increasing peak incident pressure, 20 pulses of 0.1 sec, 10% duty cycle, calcein 10 μM added before exposure) | average uptake of molecules per exposed cell, less than that of calcein (same external concentration (10 μM), exposure conditions of FIG. 7, P=8.0 atm)
1 | O=C(O)CN(CC(=O)O)Cc1cc2c(cc1O)Oc1cc(O)c(CN(CC(=O)O)CC(=O)O)cc1C21OC(=O)c2ccccc21 [calcein] | significant uptake occurred for up to two minutes after exposure | about 50 % less | 78 s | 66 s | 56 s | 20-25 % of external calcein concentration | –
2 | bovine serum albumen [BSA] | – | – | – | – | – | – | about 60 % less

— patent US7273458B2, “Method of applying acoustic energy effective to alter transport or cell viability” (Georgia Tech Research Corporation, priority 1998, dated 2007)
